Reference: ChEMBL document CHEMBL1201862, “PubChem BioAssay data set” (2004)
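96-well plates; 48 h exposure; 5 concentrations. Endpoints by linear interpolation between flanking doses. Not reached: highest tested concentration assigned. GI50: concentration for 50% inhibition of growth.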 Activity calls are given as the source filed them. Rule as the data show it: active = GI50 up to about 1.1 µM and inactive = higher. Where a SMILES comes first, the peptide text is derived from it. [ ]: non-standard residue; d: D form. The star is where a group is joined. Cbz = O=C(OCc1ccccc1)*; Aib = CC(C)(N)C(=O)O

Legend:
Assay in all cases: DTP human tumour cell line panel, 48 h
[1] = test system: 786-0
[2] = test system: A549
[3] = test system: HCC 2998
[4] = test system: Hs-578T
[5] = test system: LOX IMVI
[6] = test system: MDA-MB-231
[7] = test system: MDA-MB-435
[8] = test system: Malme-3M
[9] = test system: NCI-H226
[10] = test system: NCI-H23
[11] = test system: OVCAR-3
[12] = test system: SF-539
[13] = test system: SK-MEL-2
[14] = test system: SK-MEL-5
[15] = test system: SR
[16] = test system: T47D
[17] = test system: UACC-257
[18] = test system: HL-60
[19] = test system: BT-549

## CN(C)/C=N/Cc1ccc2c(c1)OCO2
[1]
  GI50: > 100 µM (inactive)
[2]
  GI50: > 100 µM (inactive)
[3]
  GI50: > 100 µM (inactive)
[4]
  GI50: > 100 µM (inactive)
[5]
  GI50: > 100 µM (inactive)
[6]
  GI50: > 100 µM (inactive)
[7]
  GI50: > 100 µM (inactive)
[8]
  GI50: > 100 µM (inactive)
[9]
  GI50: > 100 µM (inactive)
[10]
  GI50: > 100 µM (inactive)
[11]
  GI50: > 100 µM (inactive)
[12]
  GI50: > 100 µM (inactive)
[13]
  GI50: > 100 µM (inactive)
[14]
  GI50: > 100 µM (inactive)
[15]
  GI50: > 100 µM (inactive)
[16]
  GI50: > 100 µM (inactive)
[17]
  GI50: > 100 µM (inactive)

## O=c1[nH]c(=O)n(Cc2ccccc2CO)cc1Sc1ccccc1
[1]
  GI50: 47.2 µM (inactive)
[2]
  GI50: 18.5 µM (inactive)
[3]
  GI50: 15.7 µM (inactive)
[18]
  GI50: 74.8 µM (inactive)
[4]
  GI50: 23.1 µM (inactive)
[6]
  GI50: 11.8 µM (inactive)
[7]
  GI50: 20 µM (inactive)
[8]
  GI50: 21.4 µM (inactive)
[9]
  GI50: 22.4 µM (inactive)
[10]
  GI50: 17.4 µM (inactive)
[11]
  GI50: 19.5 µM (inactive)
[12]
  GI50: 23.2 µM (inactive)
[13]
  GI50: 19.3 µM (inactive)
[14]
  GI50: 10.1 µM (inactive)
[15]
  GI50: 25.4 µM (inactive)
[16]
  GI50: 62.4 µM (inactive)
[17]
  GI50: 21.6 µM (inactive)

## Cc1csc2c(=O)n(COCc3ccccc3)c(=O)[nH]c12
[1]
  GI50: > 100 µM (inactive)
[2]
  GI50: > 100 µM (inactive)
[19]
  GI50: > 100 µM (inactive)
[18]
  GI50: > 100 µM (inactive)
[4]
  GI50: 65 µM (inactive)
[5]
  GI50: > 100 µM (inactive)
[6]
  GI50: > 100 µM (inactive)
[7]
  GI50: > 100 µM (inactive)
[8]
  GI50: > 100 µM (inactive)
[9]
  GI50: > 100 µM (inactive)
[10]
  GI50: > 100 µM (inactive)
[11]
  GI50: > 100 µM (inactive)
[12]
  GI50: > 100 µM (inactive)
[14]
  GI50: 91.2 µM (inactive)
[15]
  GI50: > 100 µM (inactive)
[17]
  GI50: > 100 µM (inactive)

## S=C1SC(c2ccc(Cl)cc2)(c2ccc(Cl)cc2)c2ccccc21
[1]
  GI50: > 100 µM (inactive)
[2]
  GI50: 77.6 µM (inactive)
[19]
  GI50: 79.1 µM (inactive)
[3]
  GI50: 59.8 µM (inactive)
[4]
  GI50: > 100 µM (inactive)
[5]
  GI50: 25.7 µM (inactive)
[6]
  GI50: > 100 µM (inactive)
[7]
  GI50: 62.7 µM (inactive)
[8]
  GI50: > 100 µM (inactive)
[9]
  GI50: 51.2 µM (inactive)
[10]
  GI50: 71 µM (inactive)
[11]
  GI50: 72.1 µM (inactive)
[12]
  GI50: > 100 µM (inactive)
[14]
  GI50: 64 µM (inactive)
[15]
  GI50: 20.4 µM (inactive)
[17]
  GI50: 31 µM (inactive)

## COC[C@@H](/N=C/C(C)(C)C)C(C)C
[1]
  GI50: > 100 µM (inactive)
[2]
  GI50: > 100 µM (inactive)
[3]
  GI50: > 100 µM (inactive)
[18]
  GI50: > 100 µM (inactive)
[4]
  GI50: > 100 µM (inactive)
[5]
  GI50: > 100 µM (inactive)
[6]
  GI50: > 100 µM (inactive)
[7]
  GI50: > 100 µM (inactive)
[8]
  GI50: > 100 µM (inactive)
[9]
  GI50: > 100 µM (inactive)
[10]
  GI50: > 100 µM (inactive)
[11]
  GI50: > 100 µM (inactive)
[12]
  GI50: > 100 µM (inactive)
[13]
  GI50: > 100 µM (inactive)
[14]
  GI50: > 100 µM (inactive)
[15]
  GI50: > 100 µM (inactive)
[16]
  GI50: > 100 µM (inactive)
[17]
  GI50: 67.3 µM (inactive)

## C=CCNC(=O)/C(Cc1cc(Br)c(OC)c(Br)c1O)=N\O
[1]
  GI50: 2.61 µM (inactive)
[2]
  GI50: 6.68 µM (inactive)
[19]
  GI50: 3.03 µM (inactive)
[3]
  GI50: 4.25 µM (inactive)
[18]
  GI50: 1.29 µM (inactive)
[4]
  GI50: 1.32 µM (inactive)
[5]
  GI50: 5.68 µM (inactive)
[6]
  GI50: 6.73 µM (inactive)
[7]
  GI50: 0.515 µM (active)
[8]
  GI50: 1.34 µM (inactive)
[9]
  GI50: 2.59 µM (inactive)
[10]
  GI50: 4.16 µM (inactive)
[11]
  GI50: 2.38 µM (inactive)
[12]
  GI50: 3.6 µM (inactive)
[13]
  GI50: 7.73 µM (inactive)
[14]
  GI50: 1.78 µM (inactive)
[15]
  GI50: 1.17 µM (inactive)
[17]
  GI50: 6.15 µM (inactive)

## Oc1ccc2ccccc2c1/N=N\c1cccc2ccccc12
[1]
  GI50: > 100 µM (inactive)
[2]
  GI50: > 100 µM (inactive)
[18]
  GI50: 52.8 µM (inactive)
[4]
  GI50: > 100 µM (inactive)
[5]
  GI50: > 100 µM (inactive)
[6]
  GI50: > 100 µM (inactive)
[7]
  GI50: > 100 µM (inactive)
[9]
  GI50: > 100 µM (inactive)
[10]
  GI50: > 100 µM (inactive)
[11]
  GI50: > 100 µM (inactive)
[13]
  GI50: > 100 µM (inactive)
[14]
  GI50: > 100 µM (inactive)
[15]
  GI50: < 0.01 µM (active)
[16]
  GI50: > 100 µM (inactive)
[17]
  GI50: > 100 µM (inactive)

## O=C1NC(=O)C(COCc2ccccc2)C2=C1SCCC2 (stereo not drawn)
[1]
  GI50: > 100 µM (inactive)
[2]
  GI50: > 100 µM (inactive)
[19]
  GI50: > 100 µM (inactive)
[3]
  GI50: > 100 µM (inactive)
[18]
  GI50: > 100 µM (inactive)
[4]
  GI50: > 100 µM (inactive)
[5]
  GI50: > 100 µM (inactive)
[6]
  GI50: > 100 µM (inactive)
[7]
  GI50: > 100 µM (inactive)
[8]
  GI50: > 100 µM (inactive)
[9]
  GI50: > 100 µM (inactive)
[10]
  GI50: > 100 µM (inactive)
[11]
  GI50: > 100 µM (inactive)
[12]
  GI50: > 100 µM (inactive)
[13]
  GI50: > 100 µM (inactive)
[14]
  GI50: > 100 µM (inactive)
[15]
  GI50: > 100 µM (inactive)
[17]
  GI50: > 100 µM (inactive)

## N=C(N)NS(=O)(=O)c1ccc(NC(=O)c2cccc3c(Nc4ccc(S(=O)(=O)N=C(N)N)cc4)c4ccc(Cl)cc4nc23)cc1
[1]
  GI50: > 100 µM (inactive)
[2]
  GI50: 53 µM (inactive)
[3]
  GI50: 79.3 µM (inactive)
[5]
  GI50: 37.2 µM (inactive)
[8]
  GI50: 64.4 µM (inactive)
[10]
  GI50: > 100 µM (inactive)
[11]
  GI50: 60.5 µM (inactive)
[12]
  GI50: > 100 µM (inactive)
[13]
  GI50: > 100 µM (inactive)
[14]
  GI50: 28.6 µM (inactive)
[17]
  GI50: 77.6 µM (inactive)

## CC(Cn1c2c3ccccc3ccc2c2oc(=O)c3ccccc3c21)N(C)C (stereo not drawn)
[1]
  GI50: > 100 µM (inactive)
[2]
  GI50: > 100 µM (inactive)
[18]
  GI50: > 100 µM (inactive)
[5]
  GI50: > 100 µM (inactive)
[8]
  GI50: > 100 µM (inactive)
[10]
  GI50: > 100 µM (inactive)
[11]
  GI50: > 100 µM (inactive)
[12]
  GI50: > 100 µM (inactive)
[13]
  GI50: > 100 µM (inactive)
[15]
  GI50: > 100 µM (inactive)
[17]
  GI50: > 100 µM (inactive)

## CC12OC1(C)C1C(=O)OCC1C2=O (stereo not drawn)
[1]
  GI50: 70 µM (inactive)
[2]
  GI50: > 100 µM (inactive)
[19]
  GI50: > 100 µM (inactive)
[3]
  GI50: > 100 µM (inactive)
[18]
  GI50: 20.6 µM (inactive)
[4]
  GI50: 22.1 µM (inactive)
[5]
  GI50: > 100 µM (inactive)
[6]
  GI50: > 100 µM (inactive)
[7]
  GI50: > 100 µM (inactive)
[8]
  GI50: 17.6 µM (inactive)
[9]
  GI50: 45.9 µM (inactive)
[10]
  GI50: > 100 µM (inactive)
[11]
  GI50: 38.9 µM (inactive)
[12]
  GI50: 32.5 µM (inactive)
[13]
  GI50: 50.5 µM (inactive)
[14]
  GI50: > 100 µM (inactive)
[15]
  GI50: 21 µM (inactive)
[17]
  GI50: > 100 µM (inactive)

## O=C(/C=C/c1cccc(Br)c1)c1cccs1
[1]
  GI50: 15.8 µM (inactive)
[2]
  GI50: 17.4 µM (inactive)
[3]
  GI50: 23 µM (inactive)
[18]
  GI50: 3.83 µM (inactive)
[4]
  GI50: 27.9 µM (inactive)
[6]
  GI50: 16.7 µM (inactive)
[7]
  GI50: 11.7 µM (inactive)
[8]
  GI50: 22.1 µM (inactive)
[9]
  GI50: 17.9 µM (inactive)
[10]
  GI50: 19.5 µM (inactive)
[12]
  GI50: 18 µM (inactive)
[13]
  GI50: 17.7 µM (inactive)
[14]
  GI50: 16.9 µM (inactive)
[15]
  GI50: 10.1 µM (inactive)
[16]
  GI50: 15.3 µM (inactive)
[17]
  GI50: 18.4 µM (inactive)

## CC(C)(NC(=O)C(C)(C)NC(=O)OCc1ccccc1)C(=O)O (Cbz-[Aib]-[Aib]-OH)
[1]
  GI50: > 100 µM (inactive)
[2]
  GI50: > 100 µM (inactive)
[3]
  GI50: > 100 µM (inactive)
[4]
  GI50: > 100 µM (inactive)
[5]
  GI50: > 100 µM (inactive)
[6]
  GI50: > 100 µM (inactive)
[7]
  GI50: > 100 µM (inactive)
[8]
  GI50: > 100 µM (inactive)
[9]
  GI50: > 100 µM (inactive)
[10]
  GI50: > 100 µM (inactive)
[11]
  GI50: > 100 µM (inactive)
[12]
  GI50: > 100 µM (inactive)
[13]
  GI50: > 100 µM (inactive)
[14]
  GI50: > 100 µM (inactive)
[15]
  GI50: > 100 µM (inactive)
[16]
  GI50: > 100 µM (inactive)
[17]
  GI50: > 100 µM (inactive)
